Data published in ChEMBL document CHEMBL1201862, “PubChem BioAssay data set” (2004).
Calls of active or inactive are those of the source.

Tests used:
[1] = target: DNA dC->dU-editing enzyme APOBEC-3A (Homo sapiens, UniProt P31941); test: A3A deaminase inhibition for selectivity – biochemical, dose response (AID 504722); format: functional
[2] = target: T1, Apoptotic protease-activating factor 1 (Homo sapiens, UniProt O14727); test: activation of Apaf-1 mediated apoptosis – fluorescent, uHTS hits, dose response (AID 588554); format: functional
T1 sequence (O14727 whole entry): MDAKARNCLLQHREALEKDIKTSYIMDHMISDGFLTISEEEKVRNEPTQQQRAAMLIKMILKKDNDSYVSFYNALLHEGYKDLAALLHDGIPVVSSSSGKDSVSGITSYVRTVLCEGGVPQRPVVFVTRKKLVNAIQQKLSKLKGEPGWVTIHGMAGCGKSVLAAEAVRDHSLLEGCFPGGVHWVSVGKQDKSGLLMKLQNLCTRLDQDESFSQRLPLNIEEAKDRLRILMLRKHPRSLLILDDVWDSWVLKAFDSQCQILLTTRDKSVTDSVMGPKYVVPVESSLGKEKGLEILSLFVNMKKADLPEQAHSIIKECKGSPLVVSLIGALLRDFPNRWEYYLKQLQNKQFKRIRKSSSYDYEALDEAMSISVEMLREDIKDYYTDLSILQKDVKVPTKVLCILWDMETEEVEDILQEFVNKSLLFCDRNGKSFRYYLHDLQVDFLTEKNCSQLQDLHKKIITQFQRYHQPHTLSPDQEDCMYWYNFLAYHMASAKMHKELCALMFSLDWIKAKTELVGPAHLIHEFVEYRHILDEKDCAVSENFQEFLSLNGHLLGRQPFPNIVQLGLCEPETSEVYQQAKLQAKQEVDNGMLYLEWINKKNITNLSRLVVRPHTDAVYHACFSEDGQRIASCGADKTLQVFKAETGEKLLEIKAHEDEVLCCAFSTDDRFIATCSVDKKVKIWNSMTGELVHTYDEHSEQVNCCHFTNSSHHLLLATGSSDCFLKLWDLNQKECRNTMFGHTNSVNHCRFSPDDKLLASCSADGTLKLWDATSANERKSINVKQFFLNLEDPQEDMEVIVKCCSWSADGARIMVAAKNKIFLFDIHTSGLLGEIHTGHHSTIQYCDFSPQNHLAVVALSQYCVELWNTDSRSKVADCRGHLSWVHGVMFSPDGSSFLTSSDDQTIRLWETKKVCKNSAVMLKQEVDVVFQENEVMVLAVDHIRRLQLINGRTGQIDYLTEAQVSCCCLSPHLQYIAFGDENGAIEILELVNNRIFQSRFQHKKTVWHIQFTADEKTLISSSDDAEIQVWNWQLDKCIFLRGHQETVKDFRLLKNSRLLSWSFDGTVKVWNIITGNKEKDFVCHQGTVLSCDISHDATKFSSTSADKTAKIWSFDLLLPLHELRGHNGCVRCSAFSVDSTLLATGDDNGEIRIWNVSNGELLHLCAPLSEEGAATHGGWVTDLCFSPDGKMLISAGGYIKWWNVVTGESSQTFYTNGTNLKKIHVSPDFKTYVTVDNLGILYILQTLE

[3] = target: Beta-adrenergic receptor kinase 1 (Homo sapiens, UniProt P25098); test: aptamer displacement from bead-bound GRK2 – biochemical, cherry pick 1, bead flow cytometry, dose response (AID 504500)
[4] = target: T2, Carboxy-terminal domain RNA polymerase II polypeptide A small phosphatase 1 (Homo sapiens, UniProt Q9GZU7); test: CTDSP1 inhibitors, concentration-response, biochemical, absorbance readout, ultra-high-throughput screen actives (AID 540297); format: functional
T2 sequence (Q9GZU7 whole entry): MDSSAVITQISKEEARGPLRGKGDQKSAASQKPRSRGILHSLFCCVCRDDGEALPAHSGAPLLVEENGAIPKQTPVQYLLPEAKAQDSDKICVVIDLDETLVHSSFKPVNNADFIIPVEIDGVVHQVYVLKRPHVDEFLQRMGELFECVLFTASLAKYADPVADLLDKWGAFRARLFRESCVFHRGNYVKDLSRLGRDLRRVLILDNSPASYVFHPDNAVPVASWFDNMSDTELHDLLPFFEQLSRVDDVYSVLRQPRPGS

[5] = target: DNA dC->dU-editing enzyme APOBEC-3G (Homo sapiens, UniProt Q9HC16); test: Dose Response confirmation of small molecule APOBEC3G DNA Deaminase Inhibitors via a fluorescence-based single-stranded DNA deaminase assay. [Related pubchem assays (depositor defined):AID493012, AID493028]; format: functional
HeLa = test: ATP-based viability loss in HeLa cells – cell-based, CellTiter-Glo luminescence, cherry-pick samples, cytotoxicity control for MITF activator project, dose response (AID 540259); format: functional; conditions: Homo sapiens
Vero = test: cells; format: functional, cell-based; conditions: Chlorocebus sabaeus
[6] = viability of uninfected HEp-2 cells – cell-based, HTS, cytotoxicity control for RSV inhibitor project, dose response (AID 2410); format: functional; conditions: human respiratory syncytial virus
HEK293 [7] = test: NOD2 signaling inhibitors in MDP-stimulated cells, cell-based, uHTS, luminescence (AID 2001); format: functional; conditions: Homo sapiens
[8] = target: T3, Microphthalmia-associated transcription factor (Homo sapiens, UniProt O75030); test: reducers of TRPM1 reporter luminescence, concentration series – cell-based, SK-MEL-5, cherry-picked, set 3, MITF inhibitor project, dose response (AID 493073); format: functional;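 further: SK-MEL-5 melanoma cells with luciferase driven by the MITF target TRPM1 promoter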
T3 sequence (O75030 whole entry): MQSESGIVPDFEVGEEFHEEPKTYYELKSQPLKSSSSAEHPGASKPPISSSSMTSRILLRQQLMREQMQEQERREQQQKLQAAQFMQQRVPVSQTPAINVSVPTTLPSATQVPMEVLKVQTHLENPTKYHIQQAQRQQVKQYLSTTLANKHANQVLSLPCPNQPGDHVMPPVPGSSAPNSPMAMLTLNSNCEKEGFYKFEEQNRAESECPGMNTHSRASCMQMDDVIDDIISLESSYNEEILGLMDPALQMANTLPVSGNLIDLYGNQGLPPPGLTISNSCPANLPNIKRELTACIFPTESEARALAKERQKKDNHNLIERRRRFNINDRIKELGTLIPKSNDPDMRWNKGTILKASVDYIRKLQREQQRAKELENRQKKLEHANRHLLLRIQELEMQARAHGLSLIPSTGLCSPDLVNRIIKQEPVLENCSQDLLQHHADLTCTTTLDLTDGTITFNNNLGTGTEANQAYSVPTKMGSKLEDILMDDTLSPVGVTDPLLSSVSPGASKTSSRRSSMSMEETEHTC

HEK293 [9] = test: cells; format: functional, cell-based; conditions: Homo sapiens
[10] = target: Nucleotide-binding oligomerization domain-containing protein 2 (Homo sapiens, UniProt Q9HC29); test: inhibition of NOD2-driven NF-kB reporter – cell-based, luminescence, uHTS, HEK293 (AID 1566); format: functional
HEK293 [11] = test: cells; format: functional, cell-based; conditions: Homo sapiens; remark: listed apart in the source
HEK293 [12] = test: HEK293T cell viability loss, resazurin readout – resazurin fluorescence, cytotoxicity control for NF-kB activator project, SAR follow-up (AID 493251); format: functional, cell-based; conditions: Homo sapiens
HEK293 [13] = test: SAR Analysis of small molecule inhibitors of T-cell specific antigen receptor-induced NF-kB activation in a HEK-293T cell line using a luminescence assay - Set 2. [Related pubchem assays (depositor defined):AID435003, AID435012, AID489026]; format: functional, cell-based; conditions: Homo sapiens
Jurkat = test: SAR Analysis of small molecule inhibitors of T-cell specific antigen receptor-induced NF-kB activation in a Jurkat cell line using a luminescence assay - Set 2. [Related pubchem assays (depositor defined):AID435003, AID435012, AID465]; format: functional, cell-based; conditions: Homo sapiens
HEK293 [14] = test: inhibition of NOD1-driven NF-kB reporter – cell-based, luminescence, uHTS, primary screen (AID 1578); format: functional; conditions: Homo sapiens
HEK293 [15] = test: cells; format: functional, cell-based; conditions: Homo sapiens; remark: listed apart in the source
[16] = target: Dual specificity protein kinase CLK1 (Homo sapiens, UniProt P49759); test: inhibition of human CLK1 activity – biochemical, cherry-picked samples, selectivity assay for Dyrk1A inhibitor project, dose response (AID 588811)
Escherichia coli = test: microbe, parasite or virus in culture

Beta-adrenergic receptor kinase 1, sequence (P25098 whole entry, the tested form may be a part): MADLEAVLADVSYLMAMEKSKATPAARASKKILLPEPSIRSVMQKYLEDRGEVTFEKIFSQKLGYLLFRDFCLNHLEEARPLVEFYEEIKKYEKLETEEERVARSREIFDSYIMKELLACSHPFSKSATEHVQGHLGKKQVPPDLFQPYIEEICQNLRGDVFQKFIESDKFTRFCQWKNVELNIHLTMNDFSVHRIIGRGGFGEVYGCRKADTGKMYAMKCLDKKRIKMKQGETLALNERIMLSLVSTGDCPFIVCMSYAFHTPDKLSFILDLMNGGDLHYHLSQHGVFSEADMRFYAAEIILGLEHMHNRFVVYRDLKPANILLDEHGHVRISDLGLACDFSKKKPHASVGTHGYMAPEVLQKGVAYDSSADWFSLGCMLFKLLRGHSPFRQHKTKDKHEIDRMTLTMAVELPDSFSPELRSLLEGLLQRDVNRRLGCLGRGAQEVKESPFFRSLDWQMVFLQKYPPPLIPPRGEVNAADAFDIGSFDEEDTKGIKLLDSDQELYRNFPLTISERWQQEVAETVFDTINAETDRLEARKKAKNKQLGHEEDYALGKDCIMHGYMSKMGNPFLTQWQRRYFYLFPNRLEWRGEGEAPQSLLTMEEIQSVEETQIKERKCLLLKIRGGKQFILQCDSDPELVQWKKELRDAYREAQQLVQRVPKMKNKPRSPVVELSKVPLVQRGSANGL
DNA dC->dU-editing enzyme APOBEC-3A, sequence (P31941 whole entry): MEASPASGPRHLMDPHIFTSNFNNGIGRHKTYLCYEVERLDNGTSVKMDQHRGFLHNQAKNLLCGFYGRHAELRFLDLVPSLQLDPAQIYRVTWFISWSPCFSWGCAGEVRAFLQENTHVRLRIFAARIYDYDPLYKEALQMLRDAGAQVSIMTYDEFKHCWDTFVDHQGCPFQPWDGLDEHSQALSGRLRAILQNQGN
DNA dC->dU-editing enzyme APOBEC-3G, sequence (Q9HC16 whole entry): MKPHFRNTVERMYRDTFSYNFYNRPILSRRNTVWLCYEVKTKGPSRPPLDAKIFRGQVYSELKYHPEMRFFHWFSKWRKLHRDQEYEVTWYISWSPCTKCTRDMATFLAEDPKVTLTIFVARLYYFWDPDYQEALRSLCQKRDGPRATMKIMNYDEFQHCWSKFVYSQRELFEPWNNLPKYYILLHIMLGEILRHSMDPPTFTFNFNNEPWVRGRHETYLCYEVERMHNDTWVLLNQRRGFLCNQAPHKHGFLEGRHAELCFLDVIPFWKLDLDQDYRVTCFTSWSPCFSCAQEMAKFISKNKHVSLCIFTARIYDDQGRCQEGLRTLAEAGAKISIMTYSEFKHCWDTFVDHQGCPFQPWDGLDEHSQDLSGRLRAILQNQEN
Dual specificity protein kinase CLK1, sequence (P49759 whole entry): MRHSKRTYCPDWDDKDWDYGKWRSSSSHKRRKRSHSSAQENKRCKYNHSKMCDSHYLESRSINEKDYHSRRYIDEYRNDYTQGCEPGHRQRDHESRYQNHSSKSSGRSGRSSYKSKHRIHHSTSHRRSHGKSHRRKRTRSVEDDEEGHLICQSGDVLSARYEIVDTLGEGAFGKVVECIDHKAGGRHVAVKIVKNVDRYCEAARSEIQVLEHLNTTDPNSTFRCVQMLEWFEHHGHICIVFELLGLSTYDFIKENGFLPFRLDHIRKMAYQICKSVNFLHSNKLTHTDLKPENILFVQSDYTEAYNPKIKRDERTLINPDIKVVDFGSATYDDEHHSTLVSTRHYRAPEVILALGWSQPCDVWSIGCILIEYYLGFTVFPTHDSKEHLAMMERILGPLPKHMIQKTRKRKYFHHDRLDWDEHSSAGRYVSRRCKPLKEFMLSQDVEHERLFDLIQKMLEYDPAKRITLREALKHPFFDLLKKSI
Nucleotide-binding oligomerization domain-containing protein 2, sequence (Q9HC29 whole entry, the tested form may be a part): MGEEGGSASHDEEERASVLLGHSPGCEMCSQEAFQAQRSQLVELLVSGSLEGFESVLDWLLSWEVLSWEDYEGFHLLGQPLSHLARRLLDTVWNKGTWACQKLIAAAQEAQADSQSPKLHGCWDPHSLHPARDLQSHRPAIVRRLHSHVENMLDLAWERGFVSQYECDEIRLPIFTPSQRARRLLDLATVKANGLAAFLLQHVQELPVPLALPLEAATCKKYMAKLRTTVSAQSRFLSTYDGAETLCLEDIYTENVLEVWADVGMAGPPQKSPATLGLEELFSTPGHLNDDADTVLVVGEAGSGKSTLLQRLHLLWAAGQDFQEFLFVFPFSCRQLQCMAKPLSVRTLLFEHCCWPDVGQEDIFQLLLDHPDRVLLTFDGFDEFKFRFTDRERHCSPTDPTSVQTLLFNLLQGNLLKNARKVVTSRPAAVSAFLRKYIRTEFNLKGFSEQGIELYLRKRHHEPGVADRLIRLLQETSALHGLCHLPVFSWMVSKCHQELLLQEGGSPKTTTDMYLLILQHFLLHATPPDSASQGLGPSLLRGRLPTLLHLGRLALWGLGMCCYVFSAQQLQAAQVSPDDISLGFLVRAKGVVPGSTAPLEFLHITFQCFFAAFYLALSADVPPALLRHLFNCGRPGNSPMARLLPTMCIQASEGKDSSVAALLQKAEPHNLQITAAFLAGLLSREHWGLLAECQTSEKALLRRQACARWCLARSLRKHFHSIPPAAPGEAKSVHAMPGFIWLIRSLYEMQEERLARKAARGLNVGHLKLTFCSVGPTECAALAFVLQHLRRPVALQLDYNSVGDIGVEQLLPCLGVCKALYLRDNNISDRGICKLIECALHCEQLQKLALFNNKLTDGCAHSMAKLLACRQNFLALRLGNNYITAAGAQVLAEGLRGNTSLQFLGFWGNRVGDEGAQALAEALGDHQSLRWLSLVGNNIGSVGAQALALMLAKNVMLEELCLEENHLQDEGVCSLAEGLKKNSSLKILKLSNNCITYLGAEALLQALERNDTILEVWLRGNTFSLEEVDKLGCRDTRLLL

Q: For `C=C(C)C(=O)Nc1cccc(C2=NOC3(C2)C[C@H](C(N)=O)N(C(=O)c2ccccc2)C3)c1` (stereo not given in full), which IC50 [1] is on record?
A: The IC50 was > 100 µM (inactive).

Q: What about the EC50 [2] of the same compound?
A: Its EC50 is 17.1 µM (active).

Q: And the EC50 [3]?
A: The EC50 was 12.5 µM (inactive).

Q: What about the IC50 [4] of the same compound?
A: The IC50 was 3.85 µM (active).

Q: What about the IC50 [5] of the same compound?
A: Its IC50 is 14.3 µM (active).

Q: Which AC50 (HeLa) does the source give for `CC1CCN(c2oc(-c3ccccc3Cl)nc2C#N)CC1` here?
A: The AC50 was 73 µM (active).

Q: What does the source list for `CC(Sc1nnc(Nc2ccccc2)s1)C(=O)Nc1nc(-c2ccccc2)cs1` (stereo not given)?
A: IC50 (Vero): > 25 µM (active); CC50 [6]: > 50 µM (active)

Q: Which IC50 (HEK293 [7]) does the source give for `O=C(Nc1ccc2oc(-c3cccnc3)nc2c1)c1ccc([N+](=O)[O-])o1` here?
A: Its IC50 is 7.39 µM (active).

Q: What about the AC50 [8] of the same compound?
A: Its AC50 is 14.2 µM (active).

Q: And the IC50 (HEK293 [9])?
A: Its IC50 is > 20 µM (inactive).

Q: What about the EC50 [10] of the same compound?
A: Its EC50 is > 20 µM (inactive).

Q: What about the IC50 (HEK293 [11]) of the same compound?
A: The IC50 was > 20 µM (inactive).

Q: And the IC50 (HEK293 [12])?
A: The IC50 was > 80 µM (inactive).

Q: What about the IC50 (HEK293 [13]) of the same compound?
A: Its IC50 is 51.5 µM (inactive).

Q: What about the IC50 (Jurkat) of the same compound?
A: The IC50 was 38.7 µM (inactive).

Q: And the EC50 (HEK293 [14])?
A: Its EC50 is 7.26 µM (active).

Q: What about the IC50 (HEK293 [15]) of the same compound?
A: The IC50 was 4.02 µM (active).

Q: For `Fc1c(-c2ccc3ncnc(NCc4cccs4)c3c2)ccc2c1OCO2`, which AC50 [16] is on record?
A: Its AC50 is 0.057 µM (active).

Q: For `Cc1cc(Cl)c(S(=O)(=O)NC(C(=O)O)C(C)C)cc1OCC(=O)NC1CCCCC1` (stereo not given), which AC50 (Escherichia coli) is on record?
A: Its AC50 is 25.9 µM (active).
